The source of these data is US9481654B2, “Compositions and methods for inhibition of the JAK pathway” (Rigel Pharmaceuticals, Inc., priority 2006, dated 2016).

For orientation: IC50 means the concentration at which inhibition is half-maximal. A lower IC50 goes with greater potency in that assay.

Molecules are shown by their SMILES.

In experiment [1] the test system is IFNγ induced ICAM-1 (CD54) up-regulation in A549 lung epithelial cells (JAK/Stat pathway). Description: A549 Epithelial Line Stimulated with IFNγ (ICAM-1 surface expression, flow cytometry). It is filed as cell-based, human. The text has this:
The activity of the compounds of the invention may additionally be characterized by assaying the effect of the 2,4-pyrimidinediamine compounds described herein on A549 lung epithelial cells and U937 cells. A549 lung epithelial cells and U937 cells up-regulate ICAM-1 (CD54) surface expression in response to a variety of different stimuli. Therefore, using ICAM-1 expression as readout, test compound effects on different signaling pathways can be assessed in the same cell type. Stimulation with IL-1β through the IL-1β receptor activates the TRAF6/NFκB pathway resulting in up-regulation of ICAM-1. IFNγ induces ICAM-1 up-regulation through activation of the JAK1/JAK2 pathway. The up-regulation of ICAM-1 can be quantified by flow cytometry across a compound dose curve and EC50 values are calculated. Exemplary assays of this type are described in greater detail in Examples 5 and 6.
A549 lung epithelial cells up-regulate ICAM-1 (CD54) surface expression in response to a variety of different stimuli. Therefore, using ICAM-1 expression as readout, compound effects on different signaling pathways can be assessed in the same cell type. IFNγ up-regulates ICAM-1 through activation of the JAK/Stat pathway. In this example, the up-regulation of ICAM-1 by IFNγ was assessed.
The A549 lung epithelial carcinoma cell line originated from the American Type Culture Collection. Routine culturing was with F12K media (Mediatech Inc., Lenexa, Kans., Cat. No. 10-025-CV) with 10% fetal bovine serum, 100 I.U. penicillin and […] streptomycin (complete F12k media). Cells were incubated in a humidified atmosphere of 5% CO2 at 37° C. Prior to use in the assay, A549 cells were washed with PBS and trypsinized (Mediatech Inc., Cat. No. 25-052-CI) to lift the cells. The trypsin cell suspension was neutralized with complete F12K media and centrifuged to pellet the cells. The cell pellet was resuspended in complete F12K media at a concentration of 2.0×10^5/mL. Cells were seeded at 20,000 per well, 100 μL total volume, in a flat bottom tissue culture plate and allowed to adhere overnight.
On day two, A549 cells were pre-incubated with a 2,4-pyrimidinediamine test compound or DMSO (control) (Sigma-Aldrich, St. Louis, Mo., Catalog No. D2650) for 1 hour. The cells were then stimulated with IFNγ (75 ng/mL) (Peprotech Inc., Rocky Hill, N.J., Cat. No. 300-02) and allowed to incubate for 24 hours. The final test compound dose range was 30 μM to 14 nM in 200 μL F12K media containing 5% FBS, 0.3% DMSO.
On day three, the cell media was removed and the cells were washed with 200 μL PBS (phosphate buffered saline). Each well was trypsinized to dissociate the cells, then neutralized by addition of 200 μL complete F12K media. Cells were pelleted and stained with an APC conjugated mouse anti-human ICAM-1 (CD54) (BD Pharmingen, San Diego, Calif., Catalog #559771) antibody for 20 minutes at 4° C. Cells were washed with ice cold FACS buffer (PBS+2% FBS) and surface ICAM-1 expression was analyzed by flow cytometry. Detection was performed using a BD LSR I System Flow Cytometer, purchased from BD Biosciences of San Jose, Calif. Events were gated for live scatter and the geometric mean was calculated (Becton-Dickinson CellQuest software version 3.3, Franklin Lakes, N.J.). Geometric means were plotted against the compound concentration to generate a dose response curve.
A general note: Flow cytometry measures light scatter and fluorescence of single cells or particles in a stream.

For experiment [2], the system named is IFNγ induced ICAM-1 (CD54) up-regulation in U937 human monocytic cells (JAK/Stat pathway). As to the kind of experiment: U937 IFNγ ICAM1 FACS Assay. It counts as cell-based. The following applies: Table III Example 6, 10 ng/mL IFNγ, 18-24 hours. In short, it runs like this: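 Flow cytometry gave ICAM-1 (CD54) up-regulation as ICAM-APC geometric mean within the live-cell gate, alongside % viable cells. Human monocytic U937 cells received 3-fold serial compound dilutions for 30 min at 37 °C, followed by IFNγ stimulation lasting 18–24 h. Dose curves yielded EC50s.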

[3] abbreviates: Homo sapiens, A549, Table III Example 5.

Take `C#CCNS(=O)(=O)Cc1ccc(Nc2nc(Nc3cccc(S(N)(=O)=O)c3)ncc2F)cc1` [Compound I-4, N2-(3-Aminosulfonylphenyl)-5-fluoro-N4-[4-(prop-2-ynylaminosulfonylmethyl)phenyl]-2,4-pyrimidinediamine]: the IC50 in experiment [1] (setting [3]) came out at 18.2 µM; in experiment [2] (Homo sapiens, U-937), 908 nM.
Consider `C#CCNS(=O)(=O)Cc1ccc(Nc2nc(Nc3ccc(C)c(S(N)(=O)=O)c3)ncc2F)cc1` [Compound I-5, N2-(3-Aminosulfonyl-4-methylphenyl)-5-fluoro-N4-[4-(prop-2-ynylaminosulfonylmethyl)phenyl]-2,4-pyrimidinediamine], for which the IC50 is 56.6 µM in experiment [1] (setting [3]) and 710 nM in experiment [2] (Homo sapiens, U-937).
For `CCS(=O)(=O)NCc1ccc(Nc2nc(Nc3ccc(C)c(S(N)(=O)=O)c3)ncc2F)cc1` [Compound I-10, N2-(3-aminosulfonyl-4-methyl)phenyl-N4-(4-ethylsulfonylaminomethyl)phenyl-5-fluoro-2,4-pyrimidinediamine], the IC50 in experiment [1] (Table III Example 5) amounted to 29.5 µM; in experiment [2], 477 nM.
On to `CCS(=O)(=O)NCc1cccc(Nc2nc(Nc3cccc(S(N)(=O)=O)c3)ncc2F)c1` [Compound I-12, N2-(3-aminosulfonyl)phenyl-N4-(3-ethylsulfonylaminomethyl)phenyl-5-fluoro-2,4-pyrimidinediamine], for which the IC50 in experiment [1] (Table III Example 5) was 4.57 µM; in experiment [2], 1580 nM.
For the compound `CCS(=O)(=O)NCc1cccc(Nc2nc(Nc3ccc(C)c(S(N)(=O)=O)c3)ncc2F)c1` [Compound I-13, N2-(3-aminosulfonyl-4-methyl)phenyl-N4-(3-ethylsulfonylaminomethyl)phenyl-5-fluoro-2,4-pyrimidinediamine], the IC50 came to 3.63 µM in experiment [1] (Table III Example 5) and 536 nM in experiment [2].
For `CCS(=O)(=O)NCCc1ccc(Nc2nc(Nc3ccc(C)c(S(N)(=O)=O)c3)ncc2F)cc1` [Compound I-16, N2-(3-aminosulfonyl-4-methyl)phenyl-N4-[4-(2-ethylsulfonylamino)ethyl]phenyl-5-fluoro-2,4-pyrimidinediamine], the IC50 in experiment [1] (Table III Example 5) was determined as 9.01 µM; in experiment [2], 2280 nM.
In the same order, the values of `CCS(=O)(=O)NCc1ccc(Nc2nc(Nc3cccc(S(N)(=O)=O)c3)ncc2C)cc1` [Compound I-21, N2-(3-aminosulfonyl)phenyl-N4-(4-ethylsulfonylaminomethyl)phenyl-5-methyl-2,4-pyrimidinediamine] are 2.49 µM and 362 nM.
In the same order, the values of `CCS(=O)(=O)N[C@@H](C)c1ccc(Nc2nc(Nc3cccc(S(N)(=O)=O)c3)ncc2F)cc1` [Compound I-27, N2-(3-aminosulfonyl)phenyl-N4-[4-(1S-ethylsulfonylamino)ethyl]phenyl-5-fluoro-2,4-pyrimidinediamine] are 5.84 µM and 1240 nM.
For `CCS(=O)(=O)N[C@H](C)c1ccc(Nc2nc(Nc3cccc(S(N)(=O)=O)c3)ncc2F)cc1` [Compound I-30, N2-(3-aminosulfonyl)phenyl-N4-[4-(1R-ethylsulfonylamino)ethyl]phenyl-5-fluoro-2,4-pyrimidinediamine] the same measures were 6.1 µM and 1160 nM.
As for `Cc1ccc(Nc2ncc(F)c(Nc3cccc(CNS(=O)(=O)C4CC4)c3)n2)cc1S(N)(=O)=O` [Compound I-34, N2-(3-aminosulfonyl-4-methyl)phenyl-N4-(3-cyclopropylsulfonylaminomethyl)phenyl-5-fluoro-2,4-pyrimidinediamine], the IC50 amounted to 5.7 µM in experiment [1] (Table III Example 5) and 1190 nM in experiment [2].
Take `Cc1ccc(Nc2ncc(F)c(Nc3ccc(CNS(=O)(=O)c4cccs4)cc3)n2)cc1S(N)(=O)=O` [Compound I-37, N2-(3-aminosulfonyl-4-methyl)phenyl-5-fluoro-N4-[4-(thiophen-2-yl)sulfonylaminomethyl]phenyl-2,4-pyrimidinediamine]: the IC50 in experiment [1] (Table III Example 5) is 27.7 µM; in experiment [2], 375 nM.
In the case of `CCS(=O)(=O)NCCc1ccc(Nc2nc(Nc3cccc(S(N)(=O)=O)c3)ncc2C)cc1` [Compound I-39, N2-(3-aminosulfonyl)phenyl-N4-[4-(2-ethylsulfonylamino)ethyl]phenyl-5-methyl-2,4-pyrimidinediamine], the results for the IC50 in experiment [1] (Table III Example 5) and in experiment [2] were 3.75 µM and 604 nM, respectively.
As to `CCS(=O)(=O)NCCc1ccc(Nc2nc(Nc3ccc(C)c(S(N)(=O)=O)c3)ncc2C)cc1` [Compound I-40, N2-(3-aminosulfonyl-4-methyl)phenyl-N4-[4-(2-ethylsulfonylamino)ethyl]phenyl-5-methyl-2,4-pyrimidinediamine], the IC50 in experiment [1] (Table III Example 5) amounted to 3.49 µM; in experiment [2], 341 nM.
For `Cc1ccc(Nc2ncc(C)c(Nc3ccc(CNS(=O)(=O)C4CC4)cc3)n2)cc1S(N)(=O)=O` [Compound I-47, N2-(3-aminosulfonyl-4-methyl)phenyl-N4-(4-cyclopropylsulfonylaminomethyl)phenyl-5-methyl-2,4-pyrimidinediamine] the same measures were 2.89 µM and 104 nM.
In the same order, the values of `NS(=O)(=O)c1ccc(Nc2ncc(F)c(Nc3ccc(CNS(=O)(=O)CC(F)(F)F)cc3)n2)cc1` [Compound I-48, N2-(4-aminosulfonyl)phenyl-5-fluoro-N4-(4-trifluoroethylsulfonylaminomethyl)phenyl-2,4-pyrimidinediamine] are 29.9 µM and 3760 nM.
For `NS(=O)(=O)c1cccc(Nc2ncc(F)c(Nc3ccc(CNS(=O)(=O)CC(F)(F)F)cc3)n2)c1` [Compound I-49, N2-(3-aminosulfonyl)phenyl-5-fluoro-N4-(4-trifluoroethylsulfonylaminomethyl)phenyl-2,4-pyrimidinediamine] the same measures were 78.9 µM and 836 nM.
In the case of `Cc1ccc(Nc2ncc(F)c(Nc3ccc(CNS(=O)(=O)CC(F)(F)F)cc3)n2)cc1S(N)(=O)=O` [Compound I-50, N2-(3-aminosulfonyl-4-methyl)phenyl-5-fluoro-N4-(4-trifluoroethylsulfonylaminomethyl)phenyl-2,4-pyrimidinediamine], the 50% inhibitory concentration (IC50) in experiment [1] (Table III Example 5) came to 9.35 µM; in experiment [2] it was 548 nM.
For `Cc1cnc(Nc2cccc(S(N)(=O)=O)c2)nc1Nc1cccc(CNS(=O)(=O)C2CC2)c1` [Compound I-51, N2-(3-aminosulfonyl)phenyl-N4-(3-cyclopropylsulfonylaminomethyl)phenyl-5-methyl-2,4-pyrimidinediamine] the same measures were 2.8 µM and 324 nM.
For `Cc1ccc(Nc2ncc(C)c(Nc3cccc(CNS(=O)(=O)C4CC4)c3)n2)cc1S(N)(=O)=O` [Compound I-52, N2-(3-aminosulfonyl-4-methyl)phenyl-N4-(3-cyclopropylsulfonylaminomethyl)phenyl-5-methyl-2,4-pyrimidinediamine] the same measures were 2.55 µM and 203 nM.
For `Cc1cnc(Nc2cccc(S(N)(=O)=O)c2)nc1Nc1ccc(CCNS(=O)(=O)C2CC2)cc1` [Compound I-54, N2-(3-aminosulfonyl)phenyl-N4-[4-(2-cyclopropylsulfonylamino)ethyl]phenyl-5-methyl-2,4-pyrimidinediamine] the same measures were 4.69 µM and 389 nM.
Consider `Cc1ccc(Nc2ncc(C)c(Nc3ccc(CCNS(=O)(=O)C4CC4)cc3)n2)cc1S(N)(=O)=O` [Compound I-55, N2-(3-aminosulfonyl-4-methyl)phenyl-N4-[4-(2-cyclopropylsulfonylamino)ethyl]phenyl-5-methyl-2,4-pyrimidinediamine], for which the values for the IC50 in experiment [1] (Table III Example 5) and in experiment [2] were 3.88 µM and 360 nM, respectively.
